Source: US20080299130A1, “Methods And Compositions For The Treatment Of Ocular Neovascularization” (UNIVERSITY OF KENTUCKY RESEARCH FOUNDATION, priority 2004, published 2008)

Test system: laser-induced CNV
Test: Laser-induced choroidal neovascularization (CNV) volume after intravitreous injection
Assay type: in vivo, mouse
Experimental: Laser photocoagulation (532 nm, 200 mW, 100 ms, 75 μm; OcuLight GL, Iridex, Mountain View, Calif.) was performed on both eyes of each animal by a single individual masked to genetic identity. Laser spots (volume studies: 3/eye; angiography: 4/eye; protein analyses/flow cytometry: 12/eye) were applied in a standardized fashion around the optic nerve, using a slit lamp delivery system and a cover slip as a contact lens. The morphological endpoint of the laser injury was the appearance of a cavitation bubble, a sign thought to correlate with the disruption of Bruch's membrane.
Two weeks after laser injury, eyes were enucleated and fixed with 4% paraformaldehyde (PFA) for 30 minutes at 4° C. […]
Flat mounts were examined with a scanning laser confocal microscope (TCS SP, Leica, Heidelberg, Germany). […] The area of CNV-related fluorescence was measured by computerized image analysis with the microscope software (TCS SP; Leica). […]
Because the probability of each laser lesion developing CNV is influenced by the group to which it belongs, the mouse, the eye, and the laser spot, the mean lesion volumes were compared using a linear mixed model with a split plot repeated measures design, as previously described (Sakurai, et al., (2003), Invest Opthalmol Vis Sci 44, 2743-2749; Sakurai et al., (2003), Invest Opthalmol Vis Sci 44, 3578.3585). […] Statistical significance was determined at the 0.05 level. […]

## Recombinant MCP-1: recombinant mouse MCP-1 protein (Ccl-2)
MCP-1 knock out mice (FIG. 5, FIG. 6)
  Effect on CNV: restores CNV
Recombinant MCP-1 0.55 ng given with anti-VEGF-A antibody, n=6, P=0.82
  CNV restored, % of control: 95.7±13.0 % of control
